{"source": "paper PMC11189555", "about": "“Aryl amino acetamides prevent Plasmodium falciparum ring development via targeting the lipid-transfer protein PfSTART1” (Nature Communications, 2024)", "biological_target": "T1, recombinant PfSTART1(N330K) (I149-V394) (Plasmodium falciparum, UniProt Q8I298, N330K)", "T1 construct": "8xHis tag (N); TEV protease cleavage site (N); made in house; host or cells: Sf21 insect cells (baculovirus)", "T1 sequence (Q8I298 149-394 N330K)": "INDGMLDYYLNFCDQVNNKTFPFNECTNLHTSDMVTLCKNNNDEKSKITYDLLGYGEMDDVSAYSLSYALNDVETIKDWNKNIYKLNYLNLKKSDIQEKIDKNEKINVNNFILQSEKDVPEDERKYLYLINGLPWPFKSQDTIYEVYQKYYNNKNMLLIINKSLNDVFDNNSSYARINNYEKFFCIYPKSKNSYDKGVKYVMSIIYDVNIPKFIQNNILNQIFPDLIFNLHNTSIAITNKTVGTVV", "experiment": "Isothermal titration calorimetry", "format": "binding", "settings": "for Differential Power DP_Y / ΔH NDH_Y: PfSTART(N330K), ITC replicate data", "from_the_text": "S. frugiperda codon optimised full-length N309K and N330K PfSTART1 mutants were first synthesised by Integrated DNA Technologies, and then I149 forward and V394 reverse primers utilised to clone the same I149-V394 construct boundaries into the modified pAcGP67a expression vector with a N-terminal GP67-signal sequence, 8xHis tag, and TEV protease cleavage site. As a result of the subcloning, SSG was removed upstream of the TEV cleavage site. Construct boundaries and incorporation of the N309K and N330K mutations was verified by Sanger sequencing. The PfSTART1 mutants were expressed and purified as per wild-type PfSTART1.\nITC experiments were performed on a MicroCal PEAQ-ITC calorimeter at 25 °C, with a stirring speed of 750 rpm and a reference power of 5 μcal/sec. 500 μM M-833 series inhibitor solutions were diluted to 10 μM in 50 mM NaPO4^-3 (pH 7.4), 150 mM NaCl with a final DMSO concentration of 2% (v/v) (cell sample). PfSTART1 protein was dialysed extensively against 50 mM NaPO4^-3 (pH 7.4), 150 mM NaCl, before diluting to 90 μM in the same buffer with 2% (v/v) DMSO (syringe sample). The first injection was 0.4 μL over a 0.8 s duration, and the remaining 19 injections were 2 μL of 4 s duration, with 150 s injection spacing. Data were collected and analysed using the PEAQ-ITC software (MicroCal) and fit by a single site binding model. A fitted offset (constant control heat) was also applied to the integrated heat."}
{"compound": "CC(C)(Nc1ccc(Cl)c(S(=O)(=O)N2CCOCC2)c1)C(=O)Nc1ccc(F)c(Cl)c1", "note": "[W-991]", "values": [{"measurement": "interaction with PfSTART1(N330K)", "setting": "ITC", "value": "no interaction"}, {"measurement": "Differential Power DP_Y", "setting": "DP_X 0.083333", "value": -0.001242}, {"measurement": "Differential Power DP_Y", "setting": "DP_X 0.1", "value": -0.0011}, {"measurement": "ΔH NDH_Y", "setting": "NDH_X 0.104703", "value": -2.588}, {"measurement": "ΔH NDH_Y", "setting": "NDH_X 0.192876", "value": -2.749}]}
